Experimental data: ChEMBL document CHEMBL1629592, “Real-time monitoring of human enterovirus (HEV)-infected cells and anti-HEV 3C protease potency by fluorescence resonance energy transfer” (Antimicrob Agents Chemother, 2009)

Assays:
Format in all cases: functional, organism-based
[1] = tested on: Enterovirus; experiment: Antiviral activity against Human enterovirus CVA16 infected in Vero cells after 4 to 7 days by plaque reduction assay
[2] = tested on: Enterovirus; experiment: Antiviral activity against Human enterovirus CVB1 infected in Vero cells after 4 to 7 days by plaque reduction assay
[3] = tested on: Enterovirus; experiment: Antiviral activity against Human enterovirus CVB2 infected in Vero cells after 4 to 7 days by plaque reduction assay
[4] = tested on: Enterovirus; experiment: Antiviral activity against Human enterovirus CVB4 infected in Vero cells after 4 to 7 days by plaque reduction assay
[5] = tested on: Enterovirus; experiment: Antiviral activity against Human enterovirus Echo9 infected in Vero cells after 4 to 7 days by plaque reduction assay
[6] = tested on: Enterovirus; experiment: Antiviral activity against Human enterovirus EV71 infected in human HeLa cells after 2 to 4 days by formazan dye reduction assay
[7] = tested on: Enterovirus; experiment: Antiviral activity against Human enterovirus CVA16 infected in human HeLa cells after 2 to 4 days by formazan dye reduction assay
[8] = tested on: Enterovirus; experiment: Antiviral activity against Human enterovirus CVB1 infected in human HeLa cells after 2 to 4 days by formazan dye reduction assay
[9] = tested on: Enterovirus; experiment: Antiviral activity against Human enterovirus CVB2 infected in human HeLa cells after 2 to 4 days by formazan dye reduction assay
[10] = tested on: Enterovirus; experiment: Antiviral activity against Human enterovirus CVB4 infected in human HeLa cells after 2 to 4 days by formazan dye reduction assay
[11] = tested on: Enterovirus; experiment: Antiviral activity against Human enterovirus Echo9 infected in human HeLa cells after 2 to 4 days by formazan dye reduction assay
[12] = tested on: Enterovirus; experiment: Antiviral activity against Human enterovirus EV71 infected in Vero cells after 4 to 7 days by plaque reduction assay
[13] = tested on: Enterovirus; experiment: Antiviral activity against Human enterovirus EV71 infected in human HeLa-G3CwtR cells after 36 to 48 hrs by FRET assay
[14] = tested on: Enterovirus; experiment: Antiviral activity against Human enterovirus CVA16 infected in human HeLa-G3CwtR cells after 36 to 48 hrs by FRET assay
[15] = tested on: Enterovirus; experiment: Antiviral activity against Human enterovirus CVB1 infected in human HeLa-G3CwtR cells after 36 to 48 hrs by FRET assay
[16] = tested on: Enterovirus; experiment: Antiviral activity against Human enterovirus CVB2 infected in human HeLa-G3CwtR cells after 36 to 48 hrs by FRET assay
[17] = tested on: Enterovirus; experiment: Antiviral activity against Human enterovirus CVB4 infected in human HeLa-G3CwtR cells after 36 to 48 hrs by FRET assay
[18] = tested on: Enterovirus; experiment: Antiviral activity against Human enterovirus Echo9 infected in human HeLa-G3CwtR cells after 36 to 48 hrs by FRET assay

EC50 [1]: 419 nM | EC50 [2]: 1720 nM | EC50 [3]: 982 nM | EC50 [4]: 843 nM | EC50 [5]: 481 nM | EC50 [6]: 561 nM | EC50 [7]: 270 nM | EC50 [8]: 1250 nM | EC50 [9]: 783 nM | EC50 [10]: 372 nM | EC50 [11]: 360 nM | EC50 [12]: 791 nM | EC50 [13]: 781 nM | EC50 [14]: 331 nM | EC50 [15]: 1640 nM | EC50 [16]: 857 nM | EC50 [17]: 877 nM | EC50 [18]: 434 nM
SMILES: CCOC(=O)/C=C/[C@H](C[C@@H]1CCNC1=O)NC(=O)[C@@H](CC(=O)[C@@H](NC(=O)c1cc(C)on1)C(C)C)Cc1ccc(F)cc1 [RUPINTRIVIR]
